Where two headings read alike, the source gives them in different places.
What was measured:
Botox-induced symptoms = assay type: in vivo, mouse; conditions: for reading of Botox-induced muscle weakness after topical DAP: n=7
rat mast cells = conditions: cited from earlier work
various bacteria = conditions: cited from earlier work
neuromuscular blockade = conditions: effective-dose comparison with PMB; cited from earlier work
eukaryotic cytotoxicity = conditions: cited from earlier work
mice = conditions: effective-dose comparison with PMB; cited from earlier work
[1] = in vivo; cited from earlier work

## Nc1ccncc1N [DAP, 3,4-diaminopyridine]
Botox-induced symptoms; at 1 hour
  reading of Botox-induced muscle weakness after topical DAP: 1.5
Botox-induced symptoms; at 4 hour
  reading of Botox-induced muscle weakness after topical DAP: 0.75
Botox-induced symptoms; mouse, in vivo
  reading later in the experiment: the reading went up
  response to topical administration: rapid response

## Polymyxin B nonapeptide [PMBN]
Rat mast cells
  fold less active than PMB in releasing histamine: 25 time
Various bacteria
  MIC compared to parent molecule PMB: increased up to thousand folds
Neuromuscular blockade
  fold less active than PMB in causing neuromuscular blockade: 150 times
Eukaryotic cytotoxicity
  fold less toxic than PMB, cytotoxicity: 100 times
mice
  fold less toxic than PMB, acute toxicity: 15 times
[1]
  half-life: approximately 25 minutes

— patent publication US20060093597A1, “Methods of treating involuntary facial spasms and facial wrinkles” (priority 2002, published 2006)
